PubChem BioAssay AID192 (DTP/NCI, 2004)
Where “and” joins values, the source holds several entries; their conditions need not be identical. Identical values can stand only once. Inconclusive results and toxic doses are left out. How the source made its calls: active means survival T/C of 150% or more; inactive means T/C below 125% in these data.

System: BDF1 mice, B16 melanoma ip, median survival T/C
Assay: NCI In Vivo Anticancer Drug Screen. Data for tumor model B16 Melanoma (intraperitoneal) in B6D2F1 (BDF1) mice
Conditions: endpoint: median survival time, higher = longer survival
Method in brief: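 The ratio T/C compares compound-treated mice with vehicle-treated controls, using survival or tumor size as the endpoint in a transplantable tumor model.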

Measured: T/C

O=C(O)c1c2c(nc3ccccc13)Cc1ccccc1-2
active: dose: 67.0 mg/kg/injection, schedule: Q01DX009 (ip), vehicle: water 169 % of control | dose: 133.0 mg/kg/injection, schedule: Q01DX009 (ip), vehicle: Klucel (hydroxypropylcellulose) (HPC) 156 % of control | dose: 200.0 mg/kg/injection, schedule: Q01DX009 (ip), vehicle: water 152 % of control
inactive: dose: 3.12 mg/kg/injection, schedule: Q01DX009 (ip), vehicle: Klucel (hydroxypropylcellulose) (HPC) 100 % of control | dose: 6.25 mg/kg/injection, schedule: Q01DX009 (ip), vehicle: Klucel (hydroxypropylcellulose) (HPC) 96 % of control and 103 % of control | dose: 6.25 mg/kg/injection, schedule: Q01DX009 (ip), vehicle: water 89 % of control | dose: 12.5 mg/kg/injection, schedule: Q01DX009 (ip), vehicle: Klucel (hydroxypropylcellulose) (HPC) 98 % of control and 103 % of control and 119 % of control | dose: 12.5 mg/kg/injection, schedule: Q01DX009 (ip), vehicle: water 96 % of control and 108 % of control | dose: 25.0 mg/kg/injection, schedule: Q01DX009 (ip), vehicle: water 112 % of control and 114 % of control | dose: 30.0 mg/kg/injection, schedule: Q03HX008 (ip), vehicle: water 96 % of control | dose: 30.0 mg/kg/injection, schedule: Q03HX016 (ip), vehicle: water 107 % of control | dose: 30.0 mg/kg/injection, schedule: Q03HX024 (ip), vehicle: water 101 % of control | dose: 44.0 mg/kg/injection, schedule: Q01DX005 (iv), vehicle: water 102 % of control | dose: 44.0 mg/kg/injection, schedule: Q01DX009 (ip), vehicle: water 120 % of control | dose: 44.0 mg/kg/injection, schedule: Q01DX009 (sc), vehicle: water 102 % of control | dose: 44.0 mg/kg/injection, schedule: Q03HX008 (ip), vehicle: water 118 % of control | dose: 44.0 mg/kg/injection, schedule: Q03HX016 (ip), vehicle: water 102 % of control | dose: 44.0 mg/kg/injection, schedule: Q03HX024 (ip), vehicle: water 118 % of control | dose: 67.0 mg/kg/injection, schedule: Q01DX001 (ip), vehicle: water 107 % of control | dose: 67.0 mg/kg/injection, schedule: Q01DX005 (iv), vehicle: water 92 % of control | dose: 67.0 mg/kg/injection, schedule: Q01DX009 (oral), vehicle: water 99 % of control | dose: 67.0 mg/kg/injection, schedule: Q01DX009 (sc), vehicle: water 108 % of control | dose: 67.0 mg/kg/injection, schedule: Q03HX008 (ip), vehicle: water 106 % of control | dose: 67.0 mg/kg/injection, schedule: Q03HX016 (ip), vehicle: water 104 % of control | dose: 67.0 mg/kg/injection, schedule: Q03HX024 (ip), vehicle: water 112 % of control | dose: 67.0 mg/kg/injection, schedule: Q04DX003 (ip), vehicle: water 116 % of control | dose: 67.0 mg/kg/injection, schedule: Q08DX002 (ip), vehicle: water 106 % of control | dose: 89.0 mg/kg/injection, schedule: Q01DX001 (ip), vehicle: Klucel (hydroxypropylcellulose) (HPC) 106 % of control | dose: 100.0 mg/kg/injection, schedule: Q01DX001 (ip), vehicle: water 102 % of control | dose: 100.0 mg/kg/injection, schedule: Q01DX001 (oral), vehicle: water 101 % of control | dose: 100.0 mg/kg/injection, schedule: Q01DX005 (iv), vehicle: water 100 % of control | dose: 100.0 mg/kg/injection, schedule: Q01DX009 (oral), vehicle: water 94 % of control | dose: 100.0 mg/kg/injection, schedule: Q01DX009 (sc), vehicle: water 108 % of control | dose: 100.0 mg/kg/injection, schedule: Q03HX008 (ip), vehicle: water 120 % of control | dose: 100.0 mg/kg/injection, schedule: Q03HX016 (ip), vehicle: water 118 % of control | dose: 100.0 mg/kg/injection, schedule: Q03HX024 (ip), vehicle: water 112 % of control | dose: 100.0 mg/kg/injection, schedule: Q04DX003 (ip), vehicle: water 110 % of control | dose: 100.0 mg/kg/injection, schedule: Q08DX002 (ip), vehicle: water 113 % of control | dose: 133.0 mg/kg/injection, schedule: Q04DX003 (ip), vehicle: Klucel (hydroxypropylcellulose) (HPC) 124 % of control | dose: 150.0 mg/kg/injection, schedule: Q01DX001 (ip), vehicle: water 98 % of control and 104 % of control | dose: 150.0 mg/kg/injection, schedule: Q01DX001 (oral), vehicle: water 98 % of control | dose: 150.0 mg/kg/injection, schedule: Q01DX005 (iv), vehicle: water 102 % of control | dose: 150.0 mg/kg/injection, schedule: Q01DX009 (oral), vehicle: water 90 % of control | dose: 150.0 mg/kg/injection, schedule: Q01DX009 (sc), vehicle: water 115 % of control | dose: 150.0 mg/kg/injection, schedule: Q03HX008 (ip), vehicle: water 121 % of control | dose: 150.0 mg/kg/injection, schedule: Q04DX003 (ip), vehicle: water 108 % of control and 122 % of control | dose: 150.0 mg/kg/injection, schedule: Q08DX002 (ip), vehicle: water 121 % of control | dose: 200.0 mg/kg/injection, schedule: Q01DX001 (ip), vehicle: Klucel (hydroxypropylcellulose) (HPC) 124 % of control | dose: 225.0 mg/kg/injection, schedule: Q01DX001 (ip), vehicle: water 93 % of control and 110 % of control | dose: 225.0 mg/kg/injection, schedule: Q01DX001 (oral), vehicle: water 94 % of control | dose: 225.0 mg/kg/injection, schedule: Q01DX005 (iv), vehicle: water 104 % of control | dose: 225.0 mg/kg/injection, schedule: Q01DX009 (oral), vehicle: water 92 % of control | dose: 225.0 mg/kg/injection, schedule: Q01DX009 (sc), vehicle: water 104 % of control | dose: 225.0 mg/kg/injection, schedule: Q04DX003 (ip), vehicle: water 107 % of control and 111 % of control | dose: 225.0 mg/kg/injection, schedule: Q08DX002 (ip), vehicle: water 111 % of control | dose: 337.0 mg/kg/injection, schedule: Q01DX001 (ip), vehicle: water 98 % of control | dose: 337.0 mg/kg/injection, schedule: Q01DX001 (oral), vehicle: water 99 % of control | dose: 337.0 mg/kg/injection, schedule: Q01DX009 (oral), vehicle: water 97 % of control | dose: 337.0 mg/kg/injection, schedule: Q04DX003 (ip), vehicle: water 105 % of control and 112 % of control | dose: 450.0 mg/kg/injection, schedule: Q01DX001 (ip), vehicle: Klucel (hydroxypropylcellulose) (HPC) 111 % of control | dose: 506.0 mg/kg/injection, schedule: Q01DX001 (oral), vehicle: water 93 % of control

Cc1nc(/N=N/c2nc(C)c(C)[nH]2)[nH]c1C
inactive: dose: 100.0 mg/kg/injection, schedule: Q01DX009 (ip), vehicle: Klucel (hydroxypropylcellulose) (HPC) 102 % of control | dose: 200.0 mg/kg/injection, schedule: Q01DX009 (ip), vehicle: Klucel (hydroxypropylcellulose) (HPC) 101 % of control | dose: 400.0 mg/kg/injection, schedule: Q01DX009 (ip), vehicle: Klucel (hydroxypropylcellulose) (HPC) 96 % of control

COc1cccc2c1C(=O)c1c(O)c3c(c(O)c1C2=O)C[C@@](O)(/C(C)=N/NC(=O)c1ccccc1)C[C@@H]3OC1CC(N)C(O)C(C)O1 (some centres not stated)
inactive: dose: 0.5 mg/kg/injection, schedule: Q01DX009 (ip), vehicle: water 118 % of control
active: dose: 0.75 mg/kg/injection, schedule: Q01DX009 (ip), vehicle: saline 156 % of control | dose: 1.5 mg/kg/injection, schedule: Q01DX009 (ip), vehicle: saline 156 % of control and 167 % of control and 202 % of control | dose: 2.0 mg/kg/injection, schedule: Q01DX001 (ip), vehicle: water 158 % of control and 165 % of control | dose: 2.0 mg/kg/injection, schedule: Q01DX009 (ip), vehicle: water 181 % of control | dose: 3.0 mg/kg/injection, schedule: Q01DX009 (ip), vehicle: saline 186 % of control and 200 % of control and 226 % of control | dose: 3.0 mg/kg/injection, schedule: Q04DX003 (ip), vehicle: saline 165 % of control and 172 % of control | dose: 4.0 mg/kg/injection, schedule: Q01DX001 (ip), vehicle: water 161 % of control and 162 % of control and 202 % of control | dose: 4.0 mg/kg/injection, schedule: Q01DX009 (ip), vehicle: water 172 % of control | dose: 6.0 mg/kg/injection, schedule: Q01DX009 (ip), vehicle: saline 191 % of control and 202 % of control and 272 % of control | dose: 6.0 mg/kg/injection, schedule: Q04DX003 (ip), vehicle: saline 161 % of control and 193 % of control and 260 % of control | dose: 8.0 mg/kg/injection, schedule: Q01DX001 (ip), vehicle: water 186 % of control and 211 % of control and 275 % of control | dose: 8.0 mg/kg/injection, schedule: Q01DX009 (ip), vehicle: water 245 % of control | dose: 12.0 mg/kg/injection, schedule: Q04DX003 (ip), vehicle: saline 155 % of control and 215 % of control and 260 % of control | dose: 16.0 mg/kg/injection, schedule: Q01DX001 (ip), vehicle: water 178 % of control and 282 % of control and 287 % of control

Cc1ccccc1NC(=O)c1cc2ccccc2cc1O
inactive: dose: 100.0 mg/kg/injection, schedule: Q01DX009 (ip), vehicle: saline with Tween-80 110 % of control | dose: 200.0 mg/kg/injection, schedule: Q01DX009 (ip), vehicle: saline with Tween-80 110 % of control | dose: 400.0 mg/kg/injection, schedule: Q01DX009 (ip), vehicle: saline with Tween-80 107 % of control
